Data on 8 compounds can be found in PubChem BioAssay (NCI).

Test systems include A498 renal; DU-145 prostate; HCT-116 colon; HOP-62 NSCLC; MCF7 breast; MDA-MB-435; NCI-H460 lung; RPMI-8226 leukemia; SN12C renal; UACC-62 melanoma.
What all share (experiment): NCI anticancer screen, dose series, 48 h

Molecules are shown by their SMILES. Several values for one entry are separate records, joined by “and”; a condition that tells them apart may be missing. Identical values can stand only once.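 Five concentrations, 48 hours, 96-well plates. Abbreviation: GI50, concentration required for 50% inhibition of growth. TGI denotes the concentration required for complete inhibition of growth.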 Bounds are passed on as bounds.

In the case of `COc1cc(C2c3cc4c(cc3[C@@H](Nc3ccc(C#N)cc3)C3COC(=O)[C@H]23)OCO4)cc(OC)c1O` (stereo partly specified), the TGI in the assay on A498 renal is 11.4 µM; in the assay with DU-145 prostate it was 1.17 µM and 6.87 µM; in the assay on HCT-116 colon it was 10.8 µM and 2.45 µM and 11.4 µM; in the assay on HOP-62 NSCLC it was 2.82 µM and 0.59 µM and 2.57 µM; in the assay on MCF7 breast, 40.4 µM and 75 µM and > 100 µM; in the assay with MDA-MB-435, 50 µM and > 100 µM. Moreover, the TGI with RPMI-8226 leukemia was 1.42 µM and 3.87 µM and 4.73 µM; in the assay on UACC-62 melanoma, 9.01 µM and 14.1 µM. The GI50 in the assay on HCT-116 colon is 0.452 µM and 0.389 µM; in the assay with HOP-62 NSCLC, 0.194 µM and 0.234 µM; in the assay on MCF7 breast, 0.329 µM and 0.188 µM; in the assay with MDA-MB-435 it was 1.98 µM; in the assay on NCI-H460 lung, 0.0174 µM and 0.0261 µM; in the assay with RPMI-8226 leukemia, 0.869 µM and 1.33 µM. For the same compound, the GI50 in the assay with SN12C renal was 1.91 µM and 0.728 µM; in the assay on UACC-62 melanoma, 0.783 µM.

For the compound `O=C(Cn1ccc(=O)[nH]c1=O)Nc1ccc(C(=O)O)c(O)c1`, the TGI in the assay on A498 renal, in the assay on DU-145 prostate, in the assay on HCT-116 colon, in the assay on HOP-62 NSCLC, with MCF7 breast and with MDA-MB-435 was > 100 µM throughout. Moreover, the TGI with NCI-H460 lung, in the assay with RPMI-8226 leukemia, with SN12C renal and with UACC-62 melanoma was > 100 µM in each case.

Take `CN(CCCN)CCCNc1nc2ccccc2c2[nH]c3ccccc3c12`: the GI50 is 1.61 µM in the assay with A498 renal; 0.3 µM in the assay with DU-145 prostate; 0.173 µM in the assay on HCT-116 colon; 0.179 µM in the assay on HOP-62 NSCLC; 0.245 µM in the assay on MCF7 breast; 0.281 µM in the assay with MDA-MB-435. Further, the GI50 in the assay with NCI-H460 lung is 0.304 µM; with RPMI-8226 leukemia it was 0.207 µM; in the assay on SN12C renal, 0.119 µM; in the assay on UACC-62 melanoma, 0.285 µM. For the same compound, the TGI stood at 3.08 µM in the assay on A498 renal; 10.3 µM with DU-145 prostate; 1.2 µM in the assay with HCT-116 colon; 0.683 µM in the assay on HOP-62 NSCLC; 1.03 µM in the assay on MCF7 breast; 0.816 µM in the assay with MDA-MB-435. The TGI in the assay with NCI-H460 lung came out at 1.17 µM; in the assay with RPMI-8226 leukemia it was 0.947 µM; in the assay with SN12C renal, 0.606 µM; with UACC-62 melanoma, 0.692 µM.

Consider `CCN(CC)c1ccc(C(=C2C=CC(=[N+](CC)Cc3cccc(S(=O)(=O)O)c3)C=C2)c2ccc(N(CC)Cc3cccc(S(=O)(=O)O)c3)cc2)cc1`, for which the GI50 with A498 renal was 5.35 µM; in the assay on DU-145 prostate it was 4.74 µM; in the assay with HCT-116 colon it was 3.18 µM; in the assay on HOP-62 NSCLC, 4.59 µM; with MCF7 breast, 3.66 µM; with MDA-MB-435, 4.07 µM. The GI50 with NCI-H460 lung is 3.93 µM; with RPMI-8226 leukemia it was 3.32 µM; in the assay on SN12C renal it was 3.24 µM; with UACC-62 melanoma it was 13 µM. Moreover, the TGI was 32.4 µM in the assay with A498 renal; > 100 µM in the assay with DU-145 prostate; 19.7 µM with HCT-116 colon; > 96.6 µM in the assay with HOP-62 NSCLC; > 100 µM in the assay with MCF7 breast; > 100 µM in the assay with MDA-MB-435. For the same compound, the TGI in the assay on NCI-H460 lung was 39.1 µM; in the assay with RPMI-8226 leukemia, > 51.1 µM; in the assay on SN12C renal, > 100 µM; with UACC-62 melanoma, 87 µM.

In the case of `C1CCSCCCCSCCCCSCCCCSC1`, the TGI in the assay with A498 renal, in the assay with DU-145 prostate, in the assay on HCT-116 colon, with HOP-62 NSCLC, in the assay on MCF7 breast and with MDA-MB-435 was > 100 µM each time. Moreover, the TGI in the assay with NCI-H460 lung, with RPMI-8226 leukemia, with SN12C renal and in the assay with UACC-62 melanoma was > 100 µM in each case.

For the compound `C=CCc1c2c(c(OC)c3ccoc13)C(=O)/C(=C/c1ccccc1OC)O2`, the GI50 is 5.81 µM in the assay with A498 renal; 3.19 µM in the assay with DU-145 prostate; 3.29 µM in the assay on HCT-116 colon; 4.98 µM with HOP-62 NSCLC; 2.92 µM with MCF7 breast; 3.12 µM in the assay on MDA-MB-435. Also, the GI50 was 3.46 µM with NCI-H460 lung, 3.51 µM with RPMI-8226 leukemia, 4.85 µM in the assay with SN12C renal and 4.14 µM in the assay with UACC-62 melanoma. Moreover, the TGI is 79.2 µM with A498 renal; > 100 µM in the assay with DU-145 prostate; > 100 µM in the assay on HCT-116 colon; 46.3 µM in the assay on HOP-62 NSCLC; > 100 µM in the assay on MCF7 breast; > 100 µM with MDA-MB-435. The TGI in the assay on NCI-H460 lung is > 100 µM; in the assay on RPMI-8226 leukemia, > 100 µM; with SN12C renal, > 100 µM; in the assay with UACC-62 melanoma, 58.4 µM.

Turning to `CCN1C(=O)N(CC)C2C1NN=c1s/c(=C\c3cccnc3)c(=O)n12` (stereo unspecified), the GI50 is 0.224 µM in the assay with A498 renal; 0.412 µM in the assay on DU-145 prostate; 0.478 µM with HCT-116 colon; 0.628 µM with HOP-62 NSCLC; 0.333 µM in the assay on MCF7 breast; 0.154 µM in the assay on MDA-MB-435. Further, the GI50 in the assay on NCI-H460 lung was 0.4 µM; in the assay on RPMI-8226 leukemia it was 0.41 µM; in the assay with SN12C renal, 0.616 µM; in the assay on UACC-62 melanoma, 0.417 µM. Moreover, the TGI was 1.01 µM with A498 renal; > 48.7 µM in the assay with DU-145 prostate; > 100 µM in the assay with HCT-116 colon; > 100 µM in the assay on HOP-62 NSCLC; > 100 µM in the assay on MCF7 breast; 0.527 µM in the assay with MDA-MB-435. For the same compound, the TGI with NCI-H460 lung, with RPMI-8226 leukemia, with SN12C renal and with UACC-62 melanoma was > 100 µM in each case.

`CN1CCN(CCc2cccc(C(=O)c3cnn(-c4ccc(F)cc4)c3N)c2)CC1`: the GI50 in the assay with A498 renal, in the assay on DU-145 prostate, in the assay with HCT-116 colon, in the assay with HOP-62 NSCLC, in the assay on MCF7 breast and in the assay with MDA-MB-435 was > 25 µM throughout. For the same compound, the GI50 in the assay with NCI-H460 lung, with RPMI-8226 leukemia, with SN12C renal and in the assay on UACC-62 melanoma was > 25 µM each time. The TGI in the assay on A498 renal, in the assay on DU-145 prostate, in the assay with HCT-116 colon, with HOP-62 NSCLC, in the assay on MCF7 breast and in the assay on MDA-MB-435 was > 25 µM in each case. The TGI with NCI-H460 lung, in the assay with RPMI-8226 leukemia, in the assay on SN12C renal and with UACC-62 melanoma was > 25 µM each time.
